Data taken from patent US20170304388A1, “NEW INDICATION OF CARDIOVASCULAR DRUGS FOR PREPARATION OF CANCER INHIBITION PHARMACEUTICAL COMPOSITION” (LAUNX BIOMEDICAL CO., LTD., priority 2014, published 2017).
Counter-ions that a name gives are not always drawn.

Experiments:
Format in all cases: cell-based
[1] = tested on: MCF7 (Mammary Gland, Adenocarcinoma); test: Cell viability analysis (WST-1), MCF7; conditions: Homo sapiens, MCF7, 72 h, Table 3, drug 10 μM, WST-1, OD450 nm, read-out: survival rate (viability) of cancer cells, MCF7
[2] = tested on: MKN-45 (Gastric Adenocarcinoma); test: Cell viability analysis (WST-1), MKN-45; conditions: Homo sapiens, MKN-45, 72 h, Table 3, drug 10 μM, WST-1, OD450 nm, read-out: survival rate (viability) of cancer cells, MKN-45
[3] = tested on: HeLa (Cervix Adenocarcinoma); test: Cell viability analysis (WST-1), HeLa; conditions: Homo sapiens, HeLa, 72 h, Table 3, drug 10 μM, WST-1, OD450 nm, read-out: survival rate (viability) of cancer cells, HeLa
cancer cell lines = test: Growth inhibitory effects on the panel of cancer cell lines; conditions: drug 10 μM, 72 hours; for Numbers of inhibitory effect on cancer cell line: count of cancer cell lines inhibited; for inhibition effect on different cancer cell lines (in words): WST-1
Source text: Subculture the different types of cancer cells.
For cell viability analysis, the cardiovascular drugs include peripheral vasodilator reaming enhancer, angiotensin converting agent inhibitor, hypotension and shock therapeutic agent, diuretic, antiarrhythmic agent, antiarralciton drug, antihypertensive agent, anticoagulant thrombolytic agent, cardiac tonic, intravenous (hemorrhoids) therapeutic agent, are used to test the inhibition effect of cancer cell.

[4] = tested on: HL-60 (Acute Promyelocytic Leukemia); test: Cell viability analysis (WST-1), HL-60; conditions: Homo sapiens, HL-60; Table 3; drug 10 μM, 72 hours, WST-1, OD450 nm; read-out: survival rate (viability) of cancer cells, HL-60
[5] = tested on: AGS (Gastric Adenocarcinoma); test: Cell viability analysis (WST-1), AGS; conditions: 72 h, Table 3, drug 10 μM, WST-1, OD450 nm, read-out: survival rate (viability) of cancer cells, AGS
[6] = tested on: LoVo (Colorectal Adenocarcinoma); test: Cell viability analysis (WST-1), LoVo; conditions: Homo sapiens, LoVo, 72 h, Table 3, drug 10 μM, WST-1, OD450 nm, read-out: survival rate (viability) of cancer cells, LoVo
[7] = tested on: TSGH-8301 (Urinary Bladder Carcinoma); test: Cell viability analysis (WST-1), TSGH-8301; conditions: 72 h, Table 3, drug 10 μM, WST-1, OD450 nm, read-out: survival rate (viability) of cancer cells, TSGH
[8] = tested on: A549 (Lung Adenocarcinoma); test: Cell viability analysis (WST-1), A549; conditions: Homo sapiens, A549, 72 h, Table 3, drug 10 μM, WST-1, OD450 nm, read-out: survival rate (viability) of cancer cells, A549
[9] = tested on: A375 (Amelanotic Melanoma); test: Cell viability analysis (WST-1), A375; conditions: Homo sapiens, A-375, 72 h, Table 3, drug 10 μM, WST-1, OD450 nm, lower viability = better inhibition, read-out: survival rate (viability) of cancer cells, A375
[10] = tested on: HCT116 (Colorectal Carcinoma); test: Cell viability analysis (WST-1), HCT116; conditions: Homo sapiens, HCT-116, 72 h, Table 3, drug 10 μM, WST-1, OD450 nm, read-out: survival rate (viability) of cancer cells, HCT116 (WT)
[11] = tested on: HepG2 (Hepatocellular Carcinoma); test: Cell viability analysis (WST-1), HepG2; conditions: Homo sapiens, HepG2, 72 h, Table 3, drug 10 μM, WST-1, OD450 nm, read-out: survival rate (viability) of cancer cells, HepG2
[12] = tested on: PC3 (Prostate Adenocarcinoma); test: Cell viability analysis (WST-1), PC3; conditions: 72 h, Table 3, drug 10 μM, WST-1, OD450 nm, read-out: survival rate (viability) of cancer cells, PC3
[13] = tested on: H1650 (Lung Adenocarcinoma); test: Cell viability analysis (WST-1), H1650; conditions: Homo sapiens, NCI-H1650, 72 h, Table 3, drug 10 μM, WST-1, OD450 nm, read-out: survival rate (viability) of cancer cells, H1650

Row | Structure (SMILES) | viability at 10 µM [1] [%] | viability at 10 µM [2] [%] | viability at 10 µM [3] [%] | Numbers of inhibitory effect on cancer cell line (cancer cell lines) | inhibition effect on different cancer cell lines (in words) (cancer cell lines) | viability at 10 µM [4] [%] | viability at 10 µM [5] [%] | viability at 10 µM [6] [%] | viability at 10 µM [7] [%] | viability at 10 µM [8] [%] | viability at 10 µM [9] [%] | viability at 10 µM [10] [%] | viability at 10 µM [11] [%] | viability at 10 µM [12] [%] | viability at 10 µM [13] [%]
1 | NC(=O)c1ncn([C@@H]2O[C@H](CO)[C@@H](O)[C@H]2O)c1N [Acadesine] | 84.7 | 81.5 | 88.4 | 0 | significant inhibition effect | 110 | 75.4 | 80.9 | 99.7 | 117 | 99.1 | 88.7 | 103 | 94.8 | –
2 | Cc1cnc(C(=O)O)c[n+]1[O-] [Acipimox] | 75.8 | 80.2 | 87.6 | 0 | significant inhibition effect | 102 | 87.5 | 77.4 | 99.8 | 108 | 124 | 79.4 | 99.8 | 94.5 | 89.6
3 | CCN(CC)CCOC(=O)C(c1ccccc1)c1ccccc1 [Adiphenine HCl] | 103 | 95.7 | 96.4 | 0 | significant inhibition effect | 105 | 109 | 95.7 | 82 | 86.8 | 87.6 | 134 | 95.5 | 102 | 119
4 | NCCCCCC(=O)O [Aminocaproic acid (Amicar), Aminocaproic acid] | 69.2 | 80.2 | 90.4 | 0 | – | 93 | 64.8 | 91.2 | 71.4 | 70.3 | 123 | 114 | – | 79.6 | 65.4
5 | CC(C)OC(=O)C(C)(C)Oc1ccc(C(=O)c2ccc(Cl)cc2)cc1 [Fenofibrate (Tricor, Trilipix), Fenofibrate] | 78.1 | 83.1 | 98.3 | – | – | 77.6 | 84.1 | – | 103 | – | 159 | 98.9 | 104 | 105 | 122
